Broadly, the IC50 is the concentration at which inhibition is half-maximal.

For the assay, the target named is T1, Syk kinase (Homo sapiens, UniProt P43405).
T1 construct: purchased
The assay can be described thus: Syk kinase inhibition, Caliper LabChip off-chip mobility-shift kinase assay. Particulars: read-out: Syk Enzyme IC50. It is filed as biochemical. The method in brief:
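Purified Syk pre-incubated 15 min with compound in 100 mM HEPES pH 7.5, 1 mM DTT, 10 mM MgCl2 or MnCl2, 0.002% Brij-35, then 1.5 μM fluorescein peptide and ATP at apparent KM added; 1–1.5 h at room temperature, 4% DMSO, EDTA stop. Microfluidic mobility-shift product/substrate conversion gave % inhibition; IC50 from 12-point series (10–0.00003 μM) by 4-parameter fit.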
As for `Nc1ncc(-c2cc3cc[nH]c(=O)c3c(NCC(F)(F)F)n2)cn1` [compound 450], the IC50 was 117 nM. Under `C[C@H](O)CNc1nc(-c2cnc(N)nc2)cc2cc[nH]c(=O)c12` [compound 451] stands 88 nM.

Regarding `C[C@@H](O)CNc1nc(-c2cnc(N)nc2)cc2cc[nH]c(=O)c12` [compound 452], the IC50 is 140 nM. In the case of `Nc1ncc(-c2cc3cc[nH]c(=O)c3c(NC3CCC3)n2)cn1` [compound 453], the IC50 worked out at 162 nM.

For `CCC(C)(C)Nc1nc(-c2cnc(N)nc2)cc2cc[nH]c(=O)c12` [compound 454], the IC50 was 281 nM. As for `CC(C)(C)Nc1nc(-c2cnc(N)nc2)cc2cc[nH]c(=O)c12` [compound 455], the half-inhibitory concentration (IC50) was found to be 59 nM. Under `O=c1c2c(NCC(F)(F)F)nc(Nc3cnccn3)cc2ccn1CCO` [compound 456] stands 21.5 nM; under `CC[C@H](CO)Nc1nc(Nc2cnccn2)cc2ccn(CC)c(=O)c12` [compound 457], 302 nM. Under `CC1(Nc2nc(Nc3cnccn3)cc3ccn(CCO)c(=O)c23)CCC1` [compound 458] stands 11.4 nM; under `CC(C)(C)Nc1nc(Nc2cnccn2)cc2ccn(CCO)c(=O)c12` [compound 459], 52 nM.

Take `Cn1ccc2cc(Nc3cnccn3)nc(NC3CCC3)c2c1=O` [compound 460]: the IC50 was found to be 16 nM.

With `O=c1[nH]ccc2cc(Nc3cnccn3)nc(Nc3ccc(N4CCOCC4)cc3)c12` [compound 461], the IC50 is 100 nM. Under `CC(C)Nc1nc(Nc2cnccn2)cc2cc[nH]c(=O)c12` [compound 462] stands 30 nM; under `Cn1ccc2cc(Nc3cnccn3)nc(NC(C)(C)C)c2c1=O` [compound 463], 54 nM.

Turning to `Cn1ccc2cc(Nc3cnccn3)nc(NCC(F)(F)F)c2c1=O` [compound 464], the IC50 came to 81 nM. For the molecule `CCn1ccc2cc(Nc3cnccn3)nc(NC(C)(C)C)c2c1=O` [compound 465], the IC50 stood at 147 nM. Under `Cn1ccc2cc(Nc3cnccn3)nc(NC(C)(C)C)c2c1=O` [compound 466] stands 120 nM; under `[2H]C([2H])([2H])n1ccc2cc(Nc3cnccn3)nc(NC3CC3)c2c1=O` [compound 467], 49 nM. For `Cn1ccc2cc(Nc3cnccn3)nc(Nc3ccc(C(N)=O)cc3)c2c1=O` [compound 468] the value was 101 nM; for `[2H]C([2H])([2H])n1ccc2cc(Nc3cnccn3)nc(NC(C)(C)C)c2c1=O` [compound 469], 97 nM; for `C[C@@H](O)CNc1nc(Nc2cnccn2)cc2ccn(C)c(=O)c12` [compound 470], 82 nM.

For `CCn1ccc2cc(Nc3cnccn3)nc(NC(C)(C)CO)c2c1=O` [compound 471], the IC50 came to 100 nM.

As for `Cn1ccc2cc(Nc3cnccn3)nc(NC(C)(C)CO)c2c1=O` [compound 472], the IC50 amounted to 155 nM. Under `CC(C)(CO)Nc1nc(Nc2cnccn2)cc2ccn(CCO)c(=O)c12` [compound 473] stands 114 nM; under `Cn1ccc2cc(Nc3cnccn3)nc(NCCCO)c2c1=O` [compound 474], 140 nM.

As for `Cn1ccc2cc(Nc3cnccn3)nc(NCC3CCCO3)c2c1=O` (centres unmarked) [compound 475], the IC50 was determined as 139 nM. As for `Cn1ccc2cc(Nc3cnccn3)nc(Nc3ccc(C(=O)N4CCOCC4)cc3)c2c1=O` [compound 476], the IC50 worked out at 350 nM. For `Cn1ccc2cc(Nc3cnccn3)nc(Nc3cccc(C(N)=O)c3)c2c1=O` [compound 477] the value was 580 nM. Under `Nc1nc(Nc2cnccn2)cc2ccn(Cc3ccccc3)c(=O)c12` [compound 478] stands 1630 nM.

In the case of `Cn1ccc2cc(Nc3cnccn3)nc(N)c2c1=O` [compound 479], the IC50 is 599 nM. Under `Cc1ccnc(Nc2cc3cc[nH]c(=O)c3c(Nc3ccc(N4CCOCC4)cc3)n2)c1` [compound 480] stands 15 nM; under `O=c1[nH]ccc2cc(Nc3cc(Cl)ccn3)nc(NC3CC3)c12` [compound 481], 122 nM. In the case of `Cc1ccnc(Nc2cc3ccn(C)c(=O)c3c(Nc3ccc(C(N)=O)cc3)n2)c1` [compound 483], the IC50 came to 62 nM.

Take `CC(C)Nc1nc(Nc2cc(Cl)ccn2)cc2cc[nH]c(=O)c12` [compound 484]: the IC50 came out at 54 nM. Regarding `Cc1ccnc(Nc2cc3cc[nH]c(=O)c3c(NC3CCC3)n2)c1` [compound 485], the half-inhibitory concentration (IC50) turned out to be 45 nM.

Regarding `Cc1ccnc(Nc2cc3ccn(C)c(=O)c3c(NC(C)(C)CO)n2)c1` [compound 486], the IC50 amounted to 45 nM. As for `Cc1ccnc(Nc2cc3ccn(CCO)c(=O)c3c(NC(C)(C)C)n2)c1` [compound 487], the IC50 turned out to be 102 nM. For `Cc1ccnc(Nc2cc3cc[nH]c(=O)c3c(NC(C)(C)CO)n2)c1` [compound 488] the value was 21 nM; for `Cc1ccnc(Nc2cc3ccn(C)c(=O)c3c(NC3CCC3)n2)c1` [compound 489], 124 nM; for `Cc1ccnc(Nc2cc3cc[nH]c(=O)c3c(NC(C)C)n2)c1` [compound 490], 32 nM. Under `CCc1ccnc(Nc2cc3cc[nH]c(=O)c3c(NC(C)C)n2)c1` [compound 491] stands 63 nM; under `CCn1ccc2cc(Nc3cc(C)ccn3)nc(NC(C)(C)CO)c2c1=O` [compound 492], 54 nM; under `Cc1ccnc(Nc2cc3ccn(C)c(=O)c3c(NCC(F)(F)F)n2)c1` [compound 493], 214 nM.

Regarding `Cc1ccnc(Nc2cc3cc[nH]c(=O)c3c(NC(C)(C)C)n2)c1` [compound 494], the IC50 came to 75 nM. For `Cc1ccnc(Nc2cc3ccn(CCO)c(=O)c3c(NC(C)(C)CO)n2)c1` [compound 495] the value was 52 nM; for `Cc1ccnc(Nc2cc3cc[nH]c(=O)c3c(NCC(O)c3cccc(Cl)c3)n2)c1` (centres unmarked) [compound 496], 115 nM.

In the case of `Cc1cc(Nc2cc3ccn(CCO)c(=O)c3c(NC(C)(C)CO)n2)ncc1Cl` [compound 497], the IC50 stood at 111 nM. Under `Cc1cc(Nc2cc3ccn(CCO)c(=O)c3c(NC(C)(C)CO)n2)ncc1F` [compound 498] stands 76 nM; under `Cc1ccnc(Nc2cc3ccn(C)c(=O)c3c(NC(C)(C)CO)n2)c1` [compound 499], 31 nM; under `Cc1ccnc(Nc2cc3ccn(C)c(=O)c3c(Nc3ccc(C(=O)N4CCOCC4)cc3)n2)c1` [compound 500], 69 nM. For `Cc1ccnc(Nc2cc3cc[nH]c(=O)c3c(NC[C@H](C)O)n2)c1` [compound 501] the value was 38 nM; for `CCCc1ccnc(Nc2cc3cc[nH]c(=O)c3c(NC(C)C)n2)c1` [compound 502], 164 nM; for `Cc1ccnc(Nc2cc3ccn(C)c(=O)c3c(NCCCO)n2)c1` [compound 503], 84 nM. Take `Cc1ccnc(Nc2cc3cc[nH]c(=O)c3c(NCCCO)n2)c1` [compound 504]: the IC50 was 48 nM. Under `Cc1ccnc(Nc2cc3cc[nH]c(=O)c3c(NC[C@@H]3CCCO3)n2)c1` [compound 505] stands 63 nM; under `Cc1ccnc(Nc2cc3ccn(C)c(=O)c3c(NC(C)(C)C)n2)c1` [compound 506], 129 nM; under `Cc1ccnc(Nc2cc3ccn(C)c(=O)c3c(Nc3cccc(C(N)=O)c3)n2)c1` [compound 507], 136 nM. For `Cc1ccnc(Nc2cc3ccn(C)c(=O)c3c(NC(C)C)n2)c1` [compound 508] the value was 153 nM; for `O=c1[nH]ccc2cc(Nc3ccccn3)nc(Nc3ccc(N4CCOCC4)cc3)c12` [compound 509], 143 nM.

As for `CC(C)Nc1nc(Nc2cc(CO)ccn2)cc2cc[nH]c(=O)c12` [compound 510], the IC50 was 34 nM.

Consider `Cc1ccnc(Nc2cc3ccn(C)c(=O)c3c(NC[C@@H](C)O)n2)c1` [compound 511], for which the IC50 is 86 nM. For the molecule `Cc1ccnc(Nc2cc3ccn(C)c(=O)c3c(NC[C@H]3CCCO3)n2)c1` [compound 512], the IC50 was 158 nM. With `Cc1ccnc(Nc2cc3cc[nH]c(=O)c3c(NC[C@@H](C)O)n2)c1` [compound 513], the IC50 is 70 nM. `CC(C)Nc1nc(Nc2cc(C(N)=O)ccn2)cc2cc[nH]c(=O)c12` [compound 514]: the IC50 is 51 nM. Under `N#Cc1ccc(Nc2cc3cc[nH]c(=O)c3c(Nc3ccc(N4CCOCC4)cc3)n2)nc1` [compound 515] stands 301 nM; under `Cc1ccnc(Nc2cc3cc[nH]c(=O)c3c(NCC(F)(F)F)n2)c1` [compound 516], 152 nM; under `O=c1[nH]ccc2cc(Nc3cc(C(F)(F)F)ccn3)nc(NC3CC3)c12` [compound 517], 386 nM. Consider `O=c1[nH]ccc2cc(Nc3cc(CO)ccn3)nc(NC3CC3)c12` [compound 518], for which the IC50 was found to be 59 nM. For `[2H]C([2H])([2H])n1ccc2cc(Nc3cc(Cl)ccn3)nc(NC3CC3)c2c1=O` [compound 519], the IC50 was found to be 302 nM. Regarding `CCN1CCN(CCc2ccc(Nc3nc(Nc4cc(C(F)(F)F)ccn4)cc4cc[nH]c(=O)c34)cc2)CC1` [compound 520], the IC50 turned out to be 183 nM. For `CCc1ccnc(Nc2cc3cc[nH]c(=O)c3c(NC3CC3)n2)c1` [compound 521] the value was 131 nM; for `O=c1[nH]ccc2cc(Nc3ccccn3)nc(NC3CC3)c12` [compound 524], 199 nM. Under `CCn1ccc2cc(Nc3cc(C)ccn3)nc(NC(C)(C)C)c2c1=O` [compound 525] stands 242 nM; under `O=c1[nH]ccc2cc(Nc3ccc(Cl)cn3)nc(Nc3ccc(N4CCOCC4)cc3)c12` [compound 526], 803 nM. For `COCCNc1nc(Nc2cc(C)ccn2)cc2cc[nH]c(=O)c12` [compound 527] the value was 120 nM. Consider `CCC(C)(C)Nc1nc(Nc2cc(C)ccn2)cc2cc[nH]c(=O)c12` [compound 528], for which the IC50 came out at 374 nM. Under `COC[C@H](C)Nc1nc(Nc2cc(C)ccn2)cc2cc[nH]c(=O)c12` [compound 530] stands 97 nM.
